Converted amounts (≈) assume the structure as drawn.
Experiments:
[1] = test system: B. amyloliquefaciens ART4; assay: Antibiotic MIC, VetMIC Lact-1 & Lact-2 panels; type: cell-based, Bacillus amyloliquefaciens; details: average results from N= 6, 24 hr at 37° C.; for MIC: Bacillus amyloliquefaciens, ART4
Procedure: (§1) The wells of the prefabricated 96-well plates were filled with 100 μL of the final suspension. The plates were sealed with an […], Sigma Aldrich) sealing film (to facilitate growth of the aerobic Bacillus strains. The plates were then incubated for 24 hr at 37° C. The results are recorded after 24 hours as the lowest concentration of the antibiotic to inhibit visible growth. The prefabricated panels […], Uppsala, Sweden) comprising the antibiotics ampicillin, vancomycin, gentamicin, kanamycin, streptomycin, erythromycin, clindamycin, tetracycline, chloramphenicol, neomycin, penicillin, quinupristin-dalfopristin, linezolid, trimethoprim, ciprofloxacin and rifampicin were used.

[2] = test system: B. amyloliquefaciens ART24; assay: Antibiotic MIC, VetMIC Lact-1 & Lact-2 panels; type: cell-based, Bacillus amyloliquefaciens; details: average results from N= 6, 24 hr at 37° C.; for MIC: Bacillus amyloliquefaciens, ART24
Procedure: as §1

[3] = test system: B. amyloliquefaciens ART12; assay: Antibiotic MIC, VetMIC Lact-1 & Lact-2 panels; type: cell-based, Bacillus amyloliquefaciens; details: average results from N= 6, 24 hr at 37° C.; for MIC: Bacillus amyloliquefaciens, ART12
Procedure: as §1

[4] = test system: B. amyloliquefaciens ART24; assay: Antibiotic MIC following EFSA testing recommendations on lyophilized ART24 lots and cell banks; type: cell-based, Bacillus amyloliquefaciens; details: for MIC: Bacillus amyloliquefaciens, read-out: MIC for ART24
Description: The minimum inhibitory concentration (MIC) of the listed antimicrobials is expressed as µg/mL.

[5] = test system: B. amyloliquefaciens ART4; assay: MIC of metronidazole and fidaxomicin, CLSI standard method; type: cell-based; details: Bacillus amyloliquefaciens, triplicates, 16 hours, read-out: MIC against ART4
Procedure: (§2) Briefly, minimum inhibitory concentration assays were carried out in triplicate using 96-well plates (Sarstedt). Two-fold serial dilutions from an initial concentration of 512 µg/mL of each antibiotic were carried out in BHI broth (Merck). An overnight of the target strain was subcultured and incubated to an OD600 nm of 0.5 before being diluted to give a final inoculum of 10^5 cfu/ml in 200 µL and added to the antibiotic preparations. The plates were incubated at an appropriate temperature and inspected after 16 hours. The MIC was determined as the lowest concentration at which no growth was visible.

[6] = test system: B. amyloliquefaciens ART24; assay: as above; type: cell-based; details: Bacillus amyloliquefaciens, triplicates, 16 hours, read-out: MIC against ART24
Procedure: as §2

[7] = test system: B. amyloliquefaciens ART12; assay: as above; type: cell-based; details: Bacillus amyloliquefaciens, triplicates, 16 hours, read-out: MIC against ART12
Procedure: as §2

Q: `CC1(C)S[C@@H]2[C@H](NC(=O)[C@H](N)c3ccccc3)C(=O)N2[C@H]1C(=O)O` [Ampicillin] was tested. Which MIC [1] did it give?
A: 0.12 µg/mL (≈ 0.343 µM)

Q: And the MIC [2]?
A: 0.25 µg/mL (≈ 0.715 µM)

Q: What about the MIC [3] of the same compound?
A: 0.25 µg/mL (≈ 0.715 µM)

Q: And the MIC ([4]; ART24, source CO-33-12A2)?
A: ≤ 0.03 µg/mL

Q: And the MIC ([4]; ART24, source CO-33 ART 24 BHI)?
A: ≤ 0.03 µg/mL

Q: What about the MIC ([4]; ART24, source CO-33 ART 024 S) of the same compound?
A: ≤ 0.03 µg/mL

Q: And the MIC ([4]; ART24, source YD CO-33-10A2)?
A: ≤ 0.03 µg/mL

Q: What about the “MIC interpretation for ART24” value ([4]; source CO-33-12A2) of the same compound?
A: S

Q: What about the “MIC interpretation for ART24” value ([4]; source CO-33 ART 24 BHI) of the same compound?
A: S

Q: What about the “MIC interpretation for ART24” value ([4]; source CO-33 ART 024 S) of the same compound?
A: S

Q: What about the “MIC interpretation for ART24” value ([4]; source YD CO-33-10A2) of the same compound?
A: S

Q: With `CC[C@H]1OC(=O)[C@H](C)[C@@H](O[C@H]2C[C@@](C)(OC)[C@@H](O)[C@H](C)O2)[C@H](C)[C@@H](O[C@@H]2O[C@H](C)C[C@H](N(C)C)[C@H]2O)[C@](C)(O)C[C@@H](C)C(=O)[C@H](C)[C@@H](O)[C@]1(C)O` [Erythromycin] as the compound, how does the MIC [1] read?
A: 0.12 µg/mL (≈ 0.164 µM)

Q: What about the MIC [2] of the same compound?
A: 0.12 µg/mL (≈ 0.164 µM)

Q: What about the MIC [3] of the same compound?
A: 0.12 µg/mL (≈ 0.164 µM)

Q: And the MIC ([4]; ART24, source CO-33-12A2)?
A: 0.06 µg/mL (≈ 0.0818 µM)

Q: And the MIC ([4]; ART24, source CO-33 ART 24 BHI)?
A: 0.12 µg/mL (≈ 0.164 µM)

Q: And the MIC ([4]; ART24, source CO-33 ART 024 S)?
A: 0.12 µg/mL (≈ 0.164 µM)

Q: And the MIC ([4]; ART24, source YD CO-33-10A2)?
A: 0.06 µg/mL (≈ 0.0818 µM)

Q: And the “MIC interpretation for ART24” value ([4]; source CO-33-12A2)?
A: S

Q: What about the “MIC interpretation for ART24” value ([4]; source CO-33 ART 24 BHI) of the same compound?
A: S

Q: What about the “MIC interpretation for ART24” value ([4]; source CO-33 ART 024 S) of the same compound?
A: S

Q: And the “MIC interpretation for ART24” value ([4]; source YD CO-33-10A2)?
A: S

Q: What does the source list for Penicillin?
A: B. amyloliquefaciens MIC ART4 [1]: 0.12 µg/mL; B. amyloliquefaciens MIC ART24 [2]: 0.12 to 0.5 µg/mL; B. amyloliquefaciens MIC ART12 [3]: 0.5 µg/mL; MIC for ART24 ([4]; source CO-33-12A2): ≤ 0.03 µg/mL; MIC interpretation for ART24 ([4]; source CO-33-12A2): S; MIC for ART24 ([4]; source CO-33 ART 24 BHI): ≤ 0.03 µg/mL; MIC interpretation for ART24 ([4]; source CO-33 ART 24 BHI): S; MIC for ART24 ([4]; source CO-33 ART 024 S): 0.06 µg/mL; MIC interpretation for ART24 ([4]; source CO-33 ART 024 S): S; MIC for ART24 ([4]; source YD CO-33-10A2): ≤ 0.03 µg/mL; MIC interpretation for ART24 ([4]; source YD CO-33-10A2): S

Q: `CC(=O)NC[C@H]1CN(c2ccc(N3CCOCC3)c(F)c2)C(=O)O1` [Linezolid] was tested. Which MIC [1] did it give?
A: 0.5 µg/mL (≈ 1.48 µM)

Q: And the MIC [2]?
A: 0.5 µg/mL (≈ 1.48 µM)

Q: What about the MIC [3] of the same compound?
A: 0.5 µg/mL (≈ 1.48 µM)

Q: What about the MIC ([4]; ART24, source CO-33-12A2) of the same compound?
A: 0.5 µg/mL (≈ 1.48 µM)

Q: What about the MIC ([4]; ART24, source CO-33 ART 24 BHI) of the same compound?
A: 0.5 µg/mL (≈ 1.48 µM)

Q: And the MIC ([4]; ART24, source CO-33 ART 024 S)?
A: 0.5 µg/mL (≈ 1.48 µM)

Q: And the MIC ([4]; ART24, source YD CO-33-10A2)?
A: 0.25 µg/mL (≈ 0.741 µM)

Q: With `CCC[C@@H]1C[C@@H](C(=O)N[C@@H]([C@H]2O[C@H](SC)[C@H](O)[C@@H](O)[C@H]2O)[C@H](C)Cl)N(C)C1` [Clindamycin] as the compound, how does the MIC [1] read?
A: 0.5 µg/mL (≈ 1.18 µM)

Q: What about the MIC [2] of the same compound?
A: 0.5 to 1 µg/mL (≈ 1.18 to 2.35 µM)

Q: And the MIC [3]?
A: 1 µg/mL (≈ 2.35 µM)

Q: What about the MIC ([4]; ART24, source CO-33-12A2) of the same compound?
A: 0.25 µg/mL (≈ 0.588 µM)

Q: And the MIC ([4]; ART24, source CO-33 ART 24 BHI)?
A: 0.25 µg/mL (≈ 0.588 µM)

Q: And the MIC ([4]; ART24, source CO-33 ART 024 S)?
A: 0.25 µg/mL (≈ 0.588 µM)

Q: And the MIC ([4]; ART24, source YD CO-33-10A2)?
A: 0.12 µg/mL (≈ 0.282 µM)

Q: What about the “MIC interpretation for ART24” value ([4]; source CO-33-12A2) of the same compound?
A: S

Q: And the “MIC interpretation for ART24” value ([4]; source CO-33 ART 24 BHI)?
A: S

Q: And the “MIC interpretation for ART24” value ([4]; source CO-33 ART 024 S)?
A: S

Q: And the “MIC interpretation for ART24” value ([4]; source YD CO-33-10A2)?
A: S

Q: `O=C(O)c1cn(C2CC2)c2cc(N3CCNCC3)c(F)cc2c1=O` [Ciprofloxacin] was tested. Which MIC [1] did it give?
A: ≤ 0.25 µg/mL

Q: What about the MIC [2] of the same compound?
A: ≤ 0.25 µg/mL

Q: And the MIC [3]?
A: ≤ 0.25 µg/mL

Q: What about the MIC ([4]; ART24, source CO-33-12A2) of the same compound?
A: ≤ 0.03 µg/mL

Q: And the MIC ([4]; ART24, source CO-33 ART 24 BHI)?
A: ≤ 0.03 µg/mL

Q: And the MIC ([4]; ART24, source CO-33 ART 024 S)?
A: ≤ 0.03 µg/mL

Q: What about the MIC ([4]; ART24, source YD CO-33-10A2) of the same compound?
A: ≤ 0.03 µg/mL

Q: What about the “MIC interpretation for ART24” value ([4]; source CO-33-12A2) of the same compound?
A: S

Q: And the “MIC interpretation for ART24” value ([4]; source CO-33 ART 24 BHI)?
A: S

Q: And the “MIC interpretation for ART24” value ([4]; source CO-33 ART 024 S)?
A: S

Q: What about the “MIC interpretation for ART24” value ([4]; source YD CO-33-10A2) of the same compound?
A: S

Q: What does the source list for `Cc1ncc([N+](=O)[O-])n1CCO` [Metronidazole, metronidazole]?
A: MIC [5]: 128 µg/mL; MIC [6]: 128 µg/mL; MIC [7]: 64 µg/mL; MIC ([4]; ART24, anaerobic, source CO-33-12A2): 64 µg/mL (≈ 374 µM); MIC ([4]; ART24, anaerobic, source CO-33 ART 24 BHI): 64 µg/mL (≈ 374 µM); MIC ([4]; ART24, anaerobic, source CO-33 ART 024 S): 64 µg/mL (≈ 374 µM); MIC ([4]; ART24, anaerobic, source YD CO-33-10A2): 64 µg/mL (≈ 374 µM); MIC ([4]; ART24, source CO-33-12A2): > 64 µg/mL; MIC ([4]; ART24, source CO-33 ART 24 BHI): > 64 µg/mL; MIC ([4]; ART24, source CO-33 ART 024 S): > 64 µg/mL; MIC ([4]; ART24, source YD CO-33-10A2): > 64 µg/mL

Q: Which results are given for Neomycin?
A: B. amyloliquefaciens MIC ART4 [1]: ≤0.5 µg/mL; B. amyloliquefaciens MIC ART24 [2]: ≤0.5 µg/mL; B. amyloliquefaciens MIC ART12 [3]: ≤0.5 µg/mL; MIC for ART24 ([4]; source CO-33-12A2): ≤0.12 µg/mL; MIC for ART24 ([4]; source CO-33 ART 24 BHI): ≤0.12 µg/mL; MIC for ART24 ([4]; source CO-33 ART 024 S): ≤0.12 µg/mL; MIC for ART24 ([4]; source YD CO-33-10A2): ≤0.12 µg/mL

Q: How did the MIC [1] turn out when `NC[C@H]1O[C@H](O[C@H]2[C@H](O)[C@@H](O[C@H]3O[C@H](CO)[C@@H](O)[C@H](N)[C@H]3O)[C@H](N)C[C@@H]2N)[C@H](O)[C@@H](O)[C@@H]1O` [Kanamycin] was run?
A: ≤ 2 µg/mL

Q: What about the MIC [2] of the same compound?
A: ≤ 2 µg/mL

Q: What about the MIC [3] of the same compound?
A: ≤ 2 µg/mL

Q: What about the MIC ([4]; ART24, source CO-33-12A2) of the same compound?
A: ≤ 0.5 µg/mL

Q: And the MIC ([4]; ART24, source CO-33 ART 24 BHI)?
A: ≤ 0.5 µg/mL

Q: What about the MIC ([4]; ART24, source CO-33 ART 024 S) of the same compound?
A: ≤ 0.5 µg/mL

Q: And the MIC ([4]; ART24, source YD CO-33-10A2)?
A: ≤ 0.5 µg/mL

Q: And the “MIC interpretation for ART24” value ([4]; source CO-33-12A2)?
A: S

Q: And the “MIC interpretation for ART24” value ([4]; source CO-33 ART 24 BHI)?
A: S

Q: What about the “MIC interpretation for ART24” value ([4]; source CO-33 ART 024 S) of the same compound?
A: S

Q: What about the “MIC interpretation for ART24” value ([4]; source YD CO-33-10A2) of the same compound?
A: S
